In article PMC5750218, “Protein-inspired antibiotics active against vancomycin- and daptomycin-resistant bacteria” (Nature Communications, 2018):
Values after ≈ are worked out from the molar mass of the structure shown. Like-named read-outs stand apart in the source and are kept apart here.

Assays:
[1] = test system: S. pneumoniae ATCC 33400; assay: microbe, parasite or virus in culture; type: cell-based, Streptococcus pneumoniae; conditions: Streptococcus pneumoniae, ATCC33400, 24 h
In short: (§1)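 Twofold broth microdilution in Mueller Hinton broth used compounds from 8 to 0.003 µg mL^−1. Mid-log cultures were added at 5 × 10^5 CFU mL^−1 and incubated for 24 h at 37 °C. MIC was the lowest concentration with no visible growth.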

[2] = test system: S. pneumoniae ATCC 700677 MDR; assay: microbe, parasite or virus in culture; type: cell-based, Streptococcus pneumoniae; conditions: Streptococcus pneumoniae, ATCC700677, 24 h
In short: as §1

[3] = In vivo pharmacokinetics in mice; conditions: mouse; for concentration at […]: 0.250 h; for concentration at 0.5 h: 0.500 h; for MRT inf: read-out: MRT0-inf; for MRT last: read-out: MRT0-last
Protocol: Performed by WuXi AppTec (Shanghai) Co., Ltd. Seven to 9-week-old male CD1 mice (SLAC Laboratory Animal Co. Ltd., Shanghai, China) weighing 25–35 g were acclimated for approximate 3 days before being used in the study. Animals are group housed during acclimation and in-life study in compliance with the National Research Council 'Guide for the Care and Use of Laboratory Animals.' The animal room environment is controlled (target conditions: temperature 18 to 26 °C, relative humidity 30–70%, 12 h artificial light and 12 h dark) with temperature and relative humidity monitored daily. Animals were deprived of food for approximately 16 h before formulation administration then allowed access to Certified Rodent Diet (Catalogue # M-01F, Shanghai SLAC Laboratory Animal Co. Ltd.) ad libitum 4 h post dosing. Water was autoclaved before being provided to the animals ad libitum. Formulations of compounds were prepared on the morning of the dosing day. The formulation for the IV group was filtered with filter of 0.22 μm before being dosed to animals. After dose formulation preparation, duplicate 50 μL aliquots were removed from each dose formulation for use in dose validation. For each compound studied, three mice were dosed intravenously (IV) administered to each animal via tail vein per facility SOPs using test article formulated in deionised water at 1 mg mL^−1 with a dose volume of 2 mg mL^−1, providing a dose of 2 mg mL^−1 (based on free base concentration). An additional three mice were dosed subcutaneously (SC) administered to each animal via subcutaneous bolus on each animals’ back per facility SOPs using test article formulated in deionised water at 2 mg mL^−1 with a dose volume of 5 mg mL^−1, providing a dose of 10 mg mL^−1. All animals were killed at the last study time point (100% CO2 was introduced into the animal box).
Plasma samples were collected as the following target times after each dose administration: IV Sampling Time points (hours post dosing): 0, 0.083, 0.25, 0.5, 1, 2, 4, 8 and 24. SC Sampling Time points (hours post dosing): 0, 0.25, 0.5, 1, 2, 4, 8 and 24. Approximately 30 μL blood was obtained via submandibular or saphenous vein for the first several time points. For the last time point, samples were collected via cardiac puncture while the mouse was under anaesthesia. All blood samples were transferred into pre-chilled plastic microcentrifuge tubes containing 2 μL of ethylenediaminetetraacetic acid dipotassium salt (K2-EDTA) (0.5 M) as anticoagulant and placed on wet ice until centrifugation. Harvested blood samples were centrifuged within 30 min of collection at 7000 rpm (8546 × g) 4 °C for about 10 min. After centrifugation, plasma was transferred into another pre-labelled and pre-chilled polypropylene microcentrifuge tubes, then quick-frozen over dry ice and stored at −70 ± 10 °C until LC/MSMS analysis.
LC-MS/MS methods for the quantitative determination of the test article in mouse plasma were developed with an internal standard. Benchtop stability of the compound in mouse plasma was determined at mid QC concentrations in triplicate at 0, 2 h at room temperature. The stability was determined using mean peak area ratio of T2/T0 sample. If the mean peak area ratio is within 80%~120%, the test article in the plasma is considered stable for 2 h at room temperature. […] A set of QC samples consists of three concentration levels (low, middle and high). The sample analysis was performed concurrently with a set of calibration standards and two sets of QC samples using the LC-MS/MS method.
Plasma concentration vs. time data from individual animals was analysed by WinNonLin non-compartmental model (Phoenix WinNonlin 6.2.1, Pharsight, Mountain View, CA). Pharmacokinetic parameter C 0, T ½, CL, Vdss, C max, T max, AUC0-last, AUC0-inf, %F, MRT0-last, MRT0-inf and graphs of plasma concentration vs. time profile were derived.

[4] = test system: S. aureus ATCC 43300 MRSA; assay: microbe, parasite or virus in culture; type: cell-based, Staphylococcus aureus; conditions: Staphylococcus aureus, 24 h
In short: as §1

[5] = test system: Bacillus subtilis ATCC 6633; assay: microbe, parasite or virus in culture; type: cell-based; conditions: for MIC: Bacillus subtilis; for Molar excess of Ac2Kaa ligand required to antagonise antibacterial activity: [ligand]/[antibiotic], B. subtilis ATCC 6633, 24 h
[6] = test system: S. aureus ATCC 43300; assay: Membrane permeability assay (propidium iodide); type: cell-based, Staphylococcus aureus; conditions: 16 µg mL^−1, 1 h, MRSA ATCC 43300
[7] = Haemolysis assay; type: cell-based; conditions: human, read-out: % Human Whole Blood Haemolysis
[8] = 37 °C, 20 µM
[9] = in vitro; conditions: human, 50% human plasma (pooled, sodium heparin) in PBS, pH 7.4
[10] = male, CD1, plasma, 2 mg/kg IV, read-out: Plasma concentration, Mean IV
[11] = male, CD1, plasma, 10 mg/kg SC, read-out: Plasma concentration, Mean SC
[12] = male, CD1, plasma, IV 2 mg kg-1
[13] = male, CD1, plasma, SC 10 mg kg-1

## CN[C@H](CC(C)C)C(=O)N[C@H]1C(=O)N[C@@H](CC(N)=O)C(=O)N[C@H]2C(=O)N[C@H]3C(=O)N[C@H](C(=O)N[C@H](C(=O)O)c4cc(O)cc(O)c4-c4cc3ccc4O)[C@H](O)c3ccc(c(Cl)c3)Oc3cc2cc(c3O[C@@H]2O[C@H](CO)[C@@H](O)[C@H](O)[C@H]2O[C@H]2C[C@](C)(N)[C@H](O)[C@H](C)O2)Oc2ccc(cc2Cl)[C@H]1O [Compound 1, Vancomycin]
[1]; read-out: MIC S. pneumoniae ATCC 33400, 1% Survanta
  MIC: 0.5 µg/mL (≈ 0.345 µM)
[1]; read-out: MIC S. pneumoniae ATCC 33400, 5% Survanta
  MIC: 0.5 µg/mL (≈ 0.345 µM)
[1]; read-out: MIC S. pneumoniae ATCC 33400, no added Survanta
  MIC: 0.5 µg/mL (≈ 0.345 µM)
[2]; read-out: MIC S. pneumoniae ATCC 700677 MDR, 1% Survanta
  MIC: 0.5 µg/mL (≈ 0.345 µM)
[2]; read-out: MIC S. pneumoniae ATCC 700677 MDR, 5% Survanta
  MIC: 0.5 µg/mL (≈ 0.345 µM)
[2]; read-out: MIC S. pneumoniae ATCC 700677 MDR, no added Survanta
  MIC: 0.5 µg/mL (≈ 0.345 µM)
[3]; male, CD1, plasma, subcutaneous, SC 10 mg kg-1 vs IV 2 mg kg-1
  bioavailability: 70.5%
[3]; male, CD1, plasma, 2 mg/kg IV, 5 min, n=3
  concentration at 5 min: 5790 ng/mL
[3]; [10]
  concentration at […]: 3590 ng/mL
  concentration at 0.5 h: 1980 ng/mL
  concentration at 1 h: 762 ng/mL
  concentration at 2 h: 193 ng/mL
  concentration at 4 h: 27.5 ng/mL
[3]; male, CD1, plasma, 10 mg/kg SC, n=3, read-out: Plasma concentration, Mean SC
  concentration at […]: 10700 ng/mL
[3]; [11]
  concentration at 0.5 h: 9580 ng/mL
  concentration at 1 h: 5200 ng/mL
  concentration at 2 h: 1270 ng/mL
  concentration at 4 h: 137 ng/mL
[3]; male, CD1, plasma, 10 mg/kg SC, 8.00 h
  concentration at 8 h: 6.17 ng/mL
[3]; [12]
  AUC(0-inf): 3240 ng·h/mL
  AUC(0-t): 3210 ng·h/mL
  C0: 7360 ng/mL
  clearance: 10.4 mL/min/kg
  half-life: 38.4 min
  MRT inf: 37.2 min
  MRT last: 35.4 min
[3]; male, CD1, plasma, IV 2 mg kg-1, read-out: Vdss
  Vd: 0.39 L/kg
[3]; [13]
  AUC(0-inf): 11400 ng·h/mL
  AUC(0-t): 11400 ng·h/mL
  Cmax: 10700 ng/mL
  Tmax: 15 min
  half-life: 48 min
  MRT inf: 59.4 min
  MRT last: 58.8 min
[3]; IV 2 mg kg-1
  AUC0-inf/AUC0-last: 101%
  Tlast: 4 h
[3]; SC 10 mg kg-1
  AUC0-inf/AUC0-last: 100%
  Tlast: 8 h
[4]; read-out: MIC S. aureus ATCC 43300 MRSA, 1% Survanta
  MIC: 0.5 µg/mL (≈ 0.345 µM)
[4]; read-out: MIC S. aureus ATCC 43300 MRSA, 5% Survanta
  MIC: 0.5 µg/mL (≈ 0.345 µM)
[4]; read-out: MIC S. aureus ATCC 43300 MRSA, no added Survanta
  MIC: 0.5 µg/mL (≈ 0.345 µM)
[5]; ATCC6633
  MIC: 0.25 µg/mL (≈ 0.173 µM)
[5]; ATCC6633, read-out: Ac2Kaa concentration required to neutralise MIC activity
  MIC: 6.25 µg/mL (≈ 4.31 µM)
[5]
  Molar excess of Ac2Kaa ligand required to antagonise antibacterial activity: 100
[5]; listed as Vancomycin 1
  Molar excess of Ac2Kaa ligand required to antagonise antibacterial activity: 96
[6]
  Membrane permeabilisation (propidium iodide fluorescence): little to no effect
[7]; 25 µg mL-1
  hemolysis at 3 h, 25 µg mL-1: 0.1%
[7]; 50 µg mL-1
  hemolysis at 3 h, 50 µg mL-1: 0.4%
[7]; 100 µg mL-1
  hemolysis at 3 h, 100 µg mL-1: 0.3%
[7]; 200 µg mL-1
  hemolysis at 3 h, 200 µg mL-1: 0.8%
[7]; 400 µg mL-1
  hemolysis at 3 h, 400 µg mL-1: 0.8%
[7]; 800 µg mL-1
  hemolysis at 3 h, 800 µg mL-1: 0.8%
[7]; 1600 µg mL-1
  hemolysis at 3 h, 1600 µg mL-1: 1.5%
[8]
  % compound remaining after incubation in 50% human plasma, 0h: 100%
[9]
  remaining at 1 h, 20 µM: 100%
  remaining at 3 h, 20 µM: 87%
  remaining at 6 h, 20 µM: 91%
  remaining at 24 h, 20 µM: 63%
